The results in this text go back to ChEMBL document CHEMBL4665915, “Evaluation of a Series of Lipidated Tucaresol Adjuvants in a Hepatitis C Virus Vaccine Model” (2020).

The source made the active and inactive calls. The calls are words filed in the database; no cut-off is given here.

The test system of assay [1] is Mus musculus. Nature of the assay: Immuno-adjuvant activity in E2deltaTM3-immunized BALB/cj mouse assessed as potentiation of antibody response to E1E2 by measuring increase in serum anti-E1E2 IgG level administered subcutaneously as prime injection at 200 ug and 800 ug compound split over the remaining four days to give final dose of 1 mg followed by booster injection at four week intervals on day 28, 56 and 84 and measured at […] post-booster injection on days 34, 62 and 90 by ELISA. The format is functional, organism-based. For orientation: ELISA stands for enzyme-linked immunosorbent assay.

Assay [2] is filed under the species Mus musculus. Briefly: Immuno-adjuvant activity in E2deltaTM3-immunized BALB/cj mouse assessed as neutralization of HCV H77 genotype 1a pseudotyped virus particle with pooled immune sera at 1 ug/ml. It is filed as functional. The note with it: dose 1 µg/ml.

Take `CCCCCCCCCCCCCCCCOc1cccc(O)c1C=O`: the result with Mus musculus [1] was Active. In the assay listed under Mus musculus [2], the Activity is given as 59%. For `O=Cc1c(O)cccc1OCc1ccc(C(=O)O)cc1` [TUCARESOL], in the assay listed under Mus musculus [2], the Activity was determined as 61%. As for `CCCCCCCCCCCCCCCCOc1ccc(O)c(O)c1C=O`, in the assay with Mus musculus [1], the result was Active. For the same compound, the Activity in the assay listed under Mus musculus [2] was 71%.

Take `CCCCCCCCCCCCCCCCOc1cc(O)ccc1C=O`: the outcome with Mus musculus [1] was Active. Further, the Activity in the assay filed under Mus musculus [2] is recorded as 78%.
